# Test results: patent US20140179786A1, “Treatment of Alzheimer's Disease Using Tolfenamic Acid” (Board of Governors for Higher Education, State of Rhode …, priority 2012, published 2014)
# Key:
# tau gene = test: tau mRNA expression in mouse cortex by real time PCR; format: in vivo, mice; settings: 0, 5 and 50 mg/kg/day for 34 days; vs control; dose of the value not stated
# Description: (§1) It has been discovered that tolfenamic acid lowers the levels of the transcription factor Sp1, and consequently reduce the levels of an Sp1 target gene, APP, along with its pathogenic cleavage product Aβ. […] Therefore, in the study design 0, 5 and 50 mg/kg/day tolfenamic acid was administered for 34 days. […] Total mRNA levels were analyzed by real time PCR with β-actin as endogenous control. Protein expression was measured by Western blot analysis and quantified as a ratio to the house keeping protein β-actin (antibodies: T9450, Sigma-Aldrich, MO; 4970, Cell Signaling, MA). […] Values shown are the mean ±SEM.
# tau protein = test: total tau protein levels in mouse cortex by Western blot; format: in vivo, mice; settings: 0, 5 and 50 mg/kg/day for 34 days; vs control; p<0.05; dose of the value not stated
# Description: as §1
# CDK5 [1] = test: CDK5 gene expression in the cerebral cortex; format: in vivo, mice; settings: daily administration for a month; 5 and 50 mg/kg groups vs control, p<0.05
# Description: (§2) Since Sp1 also regulates CDK5 activators, the effects of tolfenamic acid on CDK5 were also tested. […] 3A (using one-way ANOVA F(2,13)=59.647, p=2.8×10^−7 Tukey-Kramer post-test p<0.05 for the C vs the 5 mg/kg group and for the C vs the 50 mg/kg group). […] When comparing the 50 mg/kg dose group to the control however, by Tukey-Kramer test, the 40% lowering in CDK5 from control was statistically significant (p<0.05).
# CDK5 [2] = test: CDK5 protein levels after tolfenamic acid treatment; format: in vivo, mice
# Description: as §2
# [3] = test system: tau phosphorylated at Ser 235; test: P-tau at Ser 235 by Western blotting; format: in vivo, mice; settings: 5 and 50 mg/kg groups vs control, p<0.05
# Description: (§3) As phosphorylation of tau affects its function and its ability to bind to microtubules, it was important to test how phosphorylated tau is affected by the treatment. P-tau levels were analyzed by Western blotting using specific antibodies. P-tau at Ser 235 (as shown in FIG. 4A) and P-tau at Thr 181 (as shown in FIG. 4B) were lowered by both doses of tolfenamic acid as shown in FIGS. 4A and 4B. Tau phosphorylated at Ser 235 was lowered by about 15% as indicated by one-way ANOVA (F(2,11)=6.105, p=0.0165), Tukey-Kramer post-test p<0.05 for the C vs the 5 mg/kg group and for the C vs the 50 mg/kg group. P-tau at Thr 181 was lowered by about 30%, one-way ANOVA F(2,10)=7.272, p=0.0112, Tukey-Kramer post-test p<0.05 for the C vs the 5 mg/kg group and for the C vs the 50 mg/kg group.
# [4] = test system: tau phosphorylated at Thr 181; test: P-tau at Thr 181 by Western blotting; format: in vivo, mice; settings: 5 and 50 mg/kg groups vs control, p<0.05
# Description: as §3
# [5] = test system: homozygous APP YAC transgenic mice, line R1.40; test: Morris water maze, learning and long-term memory; format: in vivo
# Description: In order to examine the ability of tolfenamic acid to improve the learning and memory deficits in AD transgenic mice model, male and female homozygous APP YAC transgenic, line R1.40, and wild type C57BL/6 mice aging between 20-24 months were used. Four groups of similar age and gender variation were administered vehicle or tolfenamic acid daily via oral gavages for 34 days; one transgenic group was administered 5 mg/kg/day tolfenamic acid in corn oil (n=7); the second transgenic group was administered 50 mg/kg/day tolfenamic acid in corn oil (n=7), the third transgenic group was administered corn oil, the vehicle, and the last group which consisted of wild type C57BL/6 mice was administered vehicle (n=8). After 14 days of daily dosing, mice were tested in Morris water maze. In this task, the mice had to locate the hidden platform by learning multiple spatial relationships between the platform and the distal extra-maze cues. On the first day, mice received a habituation trial in which they were allowed to swim freely for 60 seconds. On the following day and for a total of 8 days, mice received training sessions of 3 trials daily. The starting position for each trial was randomly assigned between the four possible positions while the platform position was fixed in each trial. Each animal was allowed to swim until they find the immersed hidden platform or for a maximum of 60 seconds. […]
# [6] = test system: homozygous APP YAC transgenic mice, line R1.40; test: Y-maze spontaneous alternation, working memory; format: in vivo; settings: day 33
# Description: In order to examine the ability of tolfenamic acid to improve the learning and memory deficits in AD transgenic mice model, male and female homozygous APP YAC transgenic, line R1.40, and wild type C57BL/6 mice aging between 20-24 months were used. Four groups of similar age and gender variation were administered vehicle or tolfenamic acid daily via oral gavages for 34 days; one transgenic group was administered 5 mg/kg/day tolfenamic acid in corn oil (n=7); the second transgenic group was administered 50 mg/kg/day tolfenamic acid in corn oil (n=7), the third transgenic group was administered corn oil, the vehicle, and the last group which consisted of wild type C57BL/6 mice was administered vehicle (n=8). Upon conducting the 8 acquisition sessions, probe trials on Day 1 and Day 11 following the last day of training were performed to assess the long-term memory retention by studying the preference of the mice to the correct quadrant that contained the hidden platform. On day 33, mice were tested for spontaneous alternation in Y-maze, defined as the percentage of the number of arm entries different from the previous two entries divided by the total arm entries minus two. Finally, on Day 35, mice were euthanized and brain tissue was removed and stored at −80° C.
smiles,measurement,setting,value
Cc1c(Cl)cccc1Nc1ccccc1C(=O)O [tolfenamic acid],lowering of tau mRNA expression,tau gene,48%
same,reduction of total tau protein levels,tau protein,46%
same,lowering of CDK5 gene expression in the cerebral cortex,CDK5 [1],about 50%
same,lowering in CDK5 levels from control,"CDK5 [2]; 50 mg/kg dose group vs control, Tukey-Kramer p<0.05",40%
same,"CDK5 levels, lowering trend by one-way ANOVA","CDK5 [2]; all dose groups, one-way ANOVA F(2,8)=4.086, p=0.059",not significant
same,lowering of tau phosphorylated at Ser 235,[3],about 15%
same,lowering of P-tau at Thr 181,[4],about 30%
same,"% time spent in the target quadrant, probe trials (long-term memory retention)","[5]; 5 and 50 mg/kg/day, Day 1 and 11 following the 8 daily training sessions",significant increase
same,spatial learning profile (escape latency) in daily trials,"[5]; both doses (5 and 50 mg/kg/day), oral gavage, transgenic mice 20-24 months",improved
same,"improvement in the behavioral profile (spontaneous alternation, Y-maze)",[6]; 5 mg/kg/day,did not reach significance
same,increase in the spontaneous alternation ratio in Y-maze,[6]; 50 mg/kg/day,significant
